The values below come from ChEMBL document CHEMBL1138052, “Discovery and optimization of anthranilic acid sulfonamides as inhibitors of methionine aminopeptidase-2: a structural basis for the reduction of albumin binding” (J Med Chem, 2006).

The structures appear in SMILES notation.

The data set is described as follows: Protein binding in rat plasma. In kind it is ADME, organism-based. As to conditions: read-out: PPB (converted).

In the case of `O=C(O)c1c(NS(=O)(=O)c2ccccc2)ccc2c1CCCC2`, the fraction unbound is 0.002.
Next, `Cc1ccc(NS(=O)(=O)c2ccccc2)c(C(=O)O)c1`: 0.003.
